Like-named read-outs stand apart in the source and are kept apart here.
Tests used:
[1] = system: HepG2 cells, primary human hepatocytes; settings: In vitro Assay; ref Garside 2014; cited from earlier work
[2] = system: THLE or HepG2 cells, isolated mitochondria, BSEP; settings: cited from earlier work
[3] = system: HepG2 cells; settings: cited from earlier work
[4] = system: hLiMTs; settings: cited from earlier work
[5] = cited from earlier work
[6] = system: HepG2 C3A spheroid, BSEP, Glu/Gal in HepG2 cells, bioactivation; settings: cited from earlier work
[7] = system: HepG2 cells; settings: cited from earlier work; remark: listed apart in the source
[8] = system: PHH spheroids; settings: cited from earlier work
[9] = ref Chen 2011; cited from earlier work
[10] = system: hLiMTs; assay: Combined HCI (HCS) and cellular ATP 3D assay in hLiMTs
Procedure: 3D spheroid models consisting of either primary human hepatocytes with non-parenchymal cells (hLiMT’s) or HepaRG cells (HepaRG spheroids) were assessed for size (MS), oxidative stress (OS), MMP, mitochondrial mass (MM), GSH and cellular ATP content following drug exposure. Fluorescent images are acquired using the confocal mode of an ArrayScan™ XTI HCI reader (ThermoScientific) following which cellular ATP was measured using 3D CellTiter-Glo (Promega).

[11] = system: HepG2; parameters: method as in Albrecht 2019; settings: In vitro Assay; ref Albrecht 2019; cited from earlier work
[12] = system: rBsep; settings: In vitro Assay; ref Dawson 2012; cited from earlier work
[13] = system: HepaRG spheroids; assay: Combined HCI (HCS) and cellular ATP 3D assay in HepaRG spheroids
[14] = system: hu-MPCC; settings: In vitro Assay; ref Khetani 2012; cited from earlier work
[15] = cited from earlier work; remark: listed apart in the source
[16] = system: human hepatocytes; settings: cited from earlier work
[17] = system: PHH; settings: In vitro Assay; ref Albrecht 2019; cited from earlier work
[18] = system: PHH; settings: cited from earlier work
[19] = system: RMPCC's; settings: In vitro Assay; ref Khetani 2012; cited from earlier work
[20] = system: rBsep; parameters: method as in Dawson 2012; settings: In vitro Assay; ref Dawson 2012; cited from earlier work
[21] = Modeled in vitro assays (cytotoxicity, mitochondrial dysfunction, BSEP), ref Aleo et al. 2019
[22] = In vitro Assay, ref Persson 2013
[23] = In vitro Assay, ref Proctor 2017
[24] = Microtissue model structural based (HCI), combined HCS and ATP, MEC < 25 × Cmax.tot cut-off

Q: Which results are given for `O=C1CC2(CCCC2)CC(=O)N1CCCCN1CCN(c2ncccn2)CC1` [buspirone, reference compound]?
A: Cluster 1-6 +VE Assay [1]: +VE; Ro2 Hybrid HRM Score ([2]; In vitro Assay, ref Aleo 2019): -VE; Rule of Two hybrid HRM Score ≥3, Aleo (2019) [2, 21]: -VE; Rule of Two hybrid HRM Score ≥8, Aleo (2019) [2, 21]: -VE; Cluser analysis [3, 22]: -VE; Structural based (HCI) [3, 22]: -VE; DILI in vitro assay prediction, Persson (2013) ([3]; Structural based (HCI), HepG2, ref Persson et al. 2013): -VE; hLiMTs ATP <100uM [4, 23]: -VE; hLiMTs/100uM, Proctor (2017) ([4]; hLiMTs, ATP, IC50 threshold 100 µM, ref Proctor et al. 2017): -VE; Assigned DILI category ([5]; Chen et al. 2016 or literature alignment, ref Chen et al. 2016): 1; In vivo DILI ([5]; […]): -VE; In vivo DILI ([5]; ref Albrecht 2019): -VE; In vivo DILI ([5]; ref Dawson 2012): -VE; In vivo DILI ([5]; ref Garside 2014): -VE; In vivo DILI ([5]; ref Gustafsson 2014): -VE; In vivo DILI ([5]; ref Khetani 2012): -VE; In vivo DILI ([5]; ref O'Brien 2006): -VE; In vivo DILI ([5]; ref Persson 2013): -VE; In vivo DILI ([5]; ref Proctor 2017): -VE; In vivo DILI ([5]; ref Schadt 2015): -VE; In vivo DILI ([5]; ref Vorrink 2018): -VE; In vivo DILI ([5]; ref Williams 2019): -VE; In vivo DILI ([5]; ref Xu 2008): -VE; Bayesian Machine Learning DILI prediction, Williams (2019) ([6]; Bayesian modeling, ref Williams et al. 2019): -VE; Bayesian Machine Learning ([6]; In vitro Assay, ref Williams 2019): -VE; Structural based (HCI) ([7]; In vitro Assay, ref O'Brien 2006): -VE; DILI in vitro assay prediction, O'Brien (2006) ([7]; Structural based (HCI), HepG2, ref O'Brien et al. 2006): -VE; hLiMTs ATP <20 x Cmax ([8]; In vitro Assay, ref Vorrink 2018): -VE; DILI in vitro assay prediction, Vorrink (2018) ([8]; PHH spheroids, ATP, 14 days, IC20 < 20 × Cmax.tot, ref Vorrink et al. 2018): -VE; DILI Score (FDA) (1-8) [9]: 3; AC50 ([10]; Homo sapiens, read-out: ATP endpoint AC50): 5.15 µM; minimal effective concentration ([10]; Homo sapiens, read-out: ATP endpoint MEC): 3.12 µM; DILI prediction hLiMTs (HCS-MEC) [10, 24]: -VE; hLiMTs <25x Avg Cmax ATP ([10]; hLiMTs, ATP endpoint, cut-off <25x Avg Cmax): -ve; hLiMTs <100x Avg Cmaxu ATP ([10]; hLiMTs, ATP endpoint, cut-off <100x Avg Cmaxu): -ve; hLiMTs <25x Avg Cmax HCS ([10]; hLiMTs, HCS endpoints, cut-off <25x Avg Cmax): -ve; hLiMTs <100x Avg Cmaxu HCS ([10]; hLiMTs, HCS endpoints, cut-off <100x Avg Cmaxu): -ve; hLiMTs <25x Avg Cmax All ([10]; hLiMTs, all endpoints (ATP and HCS), cut-off <25x Avg Cmax): -ve; hLiMTs Cmax max All ([10]; hLiMTs, all endpoints, Cmax max used): -ve; hLiMTs Cmax min All ([10]; hLiMTs, all endpoints, Cmax min used): -ve; hLiMTs <10 uM All ([10]; hLiMTs, all endpoints, cut-off <10 uM): +ve (<10 uM); hLiMTs <100x Avg Cmaxu All ([10]; hLiMTs, all endpoints, cut-off <100x Avg Cmaxu): -ve; Cytotoxicity HepG2 48 hrs [11]: -VE; Inhibition of rBsep cutoff<1& cmax u>.2 [12]: -VE; Inhibition of rBsep cutoff<3 [12]: -VE; HepaRG <25x Avg Cmax ATP ([13]; HepaRG, ATP endpoint, cut-off <25x Avg Cmax): -ve; HepaRG <100x Avg Cmaxu ATP ([13]; HepaRG, ATP endpoint, cut-off <100x Avg Cmaxu): -ve; HepaRG <25x Avg Cmax HCS ([13]; HepaRG, HCS endpoints, cut-off <25x Avg Cmax): -ve; HepaRG <100x Avg Cmaxu HCS ([13]; HepaRG, HCS endpoints, cut-off <100x Avg Cmaxu): -ve; HepaRG <25x Avg Cmax All ([13]; HepaRG, all endpoints (ATP and HCS), cut-off <25x Avg Cmax): -ve; HepaRG Cmax max All ([13]; HepaRG, all endpoints, Cmax max used): -ve; HepaRG Cmax min All ([13]; HepaRG, all endpoints, Cmax min used): -ve; HepaRG <10 uM All ([13]; HepaRG, all endpoints, cut-off <10 uM): -ve; HepaRG <100x Avg Cmaxu All ([13]; HepaRG, all endpoints, cut-off <100x Avg Cmaxu): -ve; DILI prediction HepaRG spheroids (HCS-MEC) [13, 24]: -VE; HMPCC's [14]: -VE; DILI severity category (Chen et al. [2016]) ([15]; LTKB DILIrank category, ref Chen et al. 2016): Ambiguous; DILI severity category (Chen 2016) ([15]; human DILI classification, LTKB DILIrank, ref Chen et al. 2016): Ambiguous; DILI severity category ([15]; human DILI severity, ref Chen et al.): Ambiguous; DILI +VE (5-8), DILI -VE (-4) ([15]; ref Chen 2016): -VE; DILI severity category ([15]; ref Chen 2016): Ambiguous DILI-concern; Structural based (HCI) ([16]; In vitro Assay, ref Xu 2008): -VE; DILI in vitro assay prediction, Xu (2008) ([16]; Structural based (HCI), human hepatocytes, ref Xu et al. 2008): -VE; Cytotoxicity PHH 48 hrs [17]: -VE; PHH/100uM, Proctor (2017) ([18]; 2D PHH, ATP, IC50 threshold 100 µM, ref Proctor et al. 2017): -VE; PHH ATP <100uM [18, 23]: -VE; RMPCC's [19]: -VE

Q: For `Cc1onc(-c2ccccc2Cl)c1C(=O)N[C@@H]1C(=O)N2[C@@H]1SC(C)(C)[C@@H]2C(=O)O` [cloxacillin], which “Inhibition of rBsep cutoff<1& cmax u>.2” value [20] is on record?
A: Its value is “-VE”.

Q: And the “Inhibition of rBsep cutoff<3” value [20]?
A: The value was “-VE”.

From PMC7395068, “The evolution of strategies to minimise the risk of human drug-induced liver injury (DILI) in drug discovery and development” (Archives of Toxicology, 2020)
